# Laboratory results from patent EP3046573B1, “AMYLIN ANALOGUES” (Zealand Pharma A/S, priority 2013, dated 2015).
# Numbered stars: 1 amine (or outer) side, 2 acyl side, 3 side chain; on linkers, the order of the positions; unused ones are H or OH. Bridge positions count the residues as written; N and C are the ends. Square brackets hold non-standard residues; d marks the D form. Peptide text beside a SMILES is read from it. * marks the point of attachment. C20 diacid = O=C(O)CCCCCCCCCCCCCCCCCCC(=O)*; γGlu = O=C(O)[C@H](CCC(=O)[*:2])N[*:1]; Hyp = O=C(O)[C@@H]1C[C@@H](O)CN1; NMeI = CC[C@H](C)[C@H](NC)C(=O)O; Sar = CNCC(=O)O
# Assays:
# [1] = target: T1, human calcitonin receptor (hCTR2) (Homo sapiens, UniProt P30988); assay: hCTR2 assay: induction of cAMP (AlphaScreen cAMP Assay kit) in COS7 cells expressing hCTR2; type: cell-based; settings: cAMP induction in COS7 cells expressing hCTR2; average of a minimum of 3 determinations; read-out: hCTR2 EC50
# T1 construct: expressed in transfected cells
# T1 sequence (P30988 25-474): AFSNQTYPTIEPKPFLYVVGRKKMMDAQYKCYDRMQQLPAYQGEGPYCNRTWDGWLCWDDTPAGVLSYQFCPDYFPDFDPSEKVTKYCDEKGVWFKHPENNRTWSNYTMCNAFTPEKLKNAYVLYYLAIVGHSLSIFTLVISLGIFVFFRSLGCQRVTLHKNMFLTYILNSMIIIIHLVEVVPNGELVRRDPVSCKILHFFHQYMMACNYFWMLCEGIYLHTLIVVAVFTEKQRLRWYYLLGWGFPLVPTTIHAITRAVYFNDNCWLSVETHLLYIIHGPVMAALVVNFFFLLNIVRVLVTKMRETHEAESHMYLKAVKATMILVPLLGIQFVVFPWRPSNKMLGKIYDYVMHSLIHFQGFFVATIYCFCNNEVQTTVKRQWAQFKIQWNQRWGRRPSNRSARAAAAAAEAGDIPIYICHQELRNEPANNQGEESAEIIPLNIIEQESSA
# How it was run: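 cAMP read-out by AlphaScreen after cell lysis; EC50 and % efficacy vs pramlintide from 4-parameter logistic fitting. Agonist stimulation: hCTR2-COS7 stable cells, 15 min, 37° C, 100 µM IBMX, 0.1% casein, Tyrode/HEPES pH 7.4.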
# [2] = target: T2, human amylin receptor 3 (hAMYR3) consisting of hCTR2 co-expressed with human Receptor Activity Modifying Protein 3 (hRAMP3) (Homo sapiens, UniProt O60896+P30988); assay: hAMYR3 assay: induction of cAMP (AlphaScreen cAMP Assay kit) in COS7 cells expressing hAMYR3; type: cell-based; settings: cAMP induction in COS7 cells expressing hAMYR3; average of a minimum of 3 determinations; read-out: hAMY R3 EC50
# T2 construct: expressed in transfected cells
# T2 sequence (P30988 25-474): T1 sequence (P30988 25-474)
# T2 sequence (O60896 24-148 partner): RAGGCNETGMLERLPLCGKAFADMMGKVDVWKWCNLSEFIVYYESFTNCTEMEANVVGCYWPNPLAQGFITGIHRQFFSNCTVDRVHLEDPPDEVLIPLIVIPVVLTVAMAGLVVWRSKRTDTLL
# How it was run: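 cAMP accumulation read by AlphaScreen in lysates of RAMP-naive COS7 cells stably transfected with hCTR2 plus hRAMP3. Cells exposed to peptide dilutions for 15 min, 37° C, with 100 µM IBMX; 4PL fitting gave EC50 and efficacy relative to pramlintide.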
# [3] = Solubility assessment (turbidity absorbance at 325 nm); type: physicochemical; settings: stock 2 mg/ml diluted 1:1, ambient temperature (typically 25°C), n=1; for Solubility, Acetate buffer pH 4: 100 mM acetate buffer pH 4.0; for Solubility, Acetate buffer pH 5: 100 mM acetate buffer pH 5.0; for Solubility, Histidine buffer pH 6: 100 mM histidine buffer pH 6.0; for Solubility, Histidine buffer pH 7: 100 mM histidine buffer pH 7.0; for Solubility, Phosphate buffer pH 6: 100 mM phosphate buffer pH 6.0; for Solubility, Phosphate buffer pH 7: 100 mM phosphate buffer pH 7.0; for Solubility, Phosphate buffer pH 7.5: 100 mM phosphate buffer pH7.5
# How it was run: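 Read-out: turbidity as absorbance at 325 nm (280 nm also read), single samples, ambient temperature of typically 25°C. Samples were a 1:1 mix of 2 mg/ml stock (water, pH 2.5) with 100 mM acetate, histidine or phosphate buffers spanning pH 4.0–7.5. Cut-off: A325 ≤ 0.02 indicates ≥ 1 mg/ml.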
# [4] = Assessment of physical stability: fibril formation detected with Thioflavin T (ThT), lag-time; type: physicochemical; settings: 1 mg/ml peptide, 40 µM ThT, FND = Fibrillation not detected
# Method: Solutions containing (i) 1 mg/ml of test peptide, 40 µM ThT and 50 mM phosphate (Ph) buffer (pH 7.0), (ii) 1 mg/ml of test peptide, 40 µM ThT and 50 mM histidine (His) buffer (pH 7.0), and (iii) 1 mg/ml of test peptide, 40 µM ThT and 50 mM acetate (Ac) buffer (pH 4.0), were loaded in a 96-well black fluorescence plate (clear bottom) in triplicate. Data were collected at fixed intervals of 10 min, each preceded by 300 s of automixing (agitation), over a period of 96 hours at 40° C. Physical stability, expressed as lag-time of fibril formation (in hours), was defined as the intersection between two linear regressions representing the initial stable phase and the growth phase.
EC50 [1] [nM],EC50 [2] [nM],"Solubility, Acetate buffer pH 4 [3]","Solubility, Acetate buffer pH 5 [3]","Solubility, Histidine buffer pH 6 [3]","Solubility, Histidine buffer pH 7 [3]","Solubility, Phosphate buffer pH 6 [3]","Solubility, Phosphate buffer pH 7 [3]","Solubility, Phosphate buffer pH 7.5 [3]","Fibrillation lag time (hours) pH 4.0 (Ac) ([4]; 50 mM acetate buffer pH 4.0, 96 hours at 40°C) [hours]","Fibrillation lag time (hours) pH 7.0 (Ph) ([4]; 50 mM phosphate buffer pH 7.0, 96 hours at 40°C) [hours]",Compound
0.11,0.27,SS (SS indicates solubility ≥ 1mg/ml),SS (SS indicates solubility ≥ 1mg/ml),SS (SS indicates solubility ≥ 1mg/ml),SS (SS indicates solubility ≥ 1mg/ml),SS (SS indicates solubility ≥ 1mg/ml),II (II indicates solubility ≤ 1 mg/ml),SS (SS indicates solubility ≥ 1mg/ml),–,–,"CC[C@H](C)[C@@H](C(=O)N[C@@H](CC(C)C)C(=O)N[C@@H](CO)C(=O)N[C@@H](CO)C(=O)N[C@H](C(=O)N[C@@H](CCC(=O)O)C(=O)N[C@H](C(=O)NCC(=O)N[C@@H](CO)C(=O)N[C@@H](CCC(=O)O)C(=O)N[C@H](C(=O)N1C[C@H](O)C[C@H]1C(N)=O)[C@@H](C)O)C(C)C)[C@@H](C)O)N(C)C(=O)CN(C)C(=O)[C@H](Cc1ccccc1)NC(=O)[C@H](CO)NC(=O)[C@H](CO)NC(=O)[C@H](CCCNC(=N)N)NC(=O)[C@H](Cc1c[nH]cn1)NC(=O)[C@H](CC(C)C)NC(=O)[C@H](Cc1ccccc1)NC(=O)[C@H](CCC(=O)O)NC(=O)[C@H](C)NC(=O)[C@H](CC(C)C)NC(=O)[C@H](CCCNC(=N)N)NC(=O)[C@H](CCC(=O)O)NC(=O)[C@@H](NC(=O)[C@H](C)NC(=O)[C@@H]1CSSC[C@H](NC(=O)[C@H](Cc2c[nH]c3ccccc23)NC(=O)CC[C@H](NC(=O)CCCCCCCCCCCCCCCCCCC(=O)O)C(=O)O)C(=O)NCC(=O)N[C@@H]([C@@H](C)O)C(=O)N[C@@H](C)C(=O)N[C@@H]([C@@H](C)O)C(=O)N1)[C@@H](C)O [Compound 165, [19CD]-isoGlu-WC()GTATC()ATERLAEFLHRSSF-Gly(Me)-Ile(Me)-LSSTEVGSET-Hyp-NH2] ({C20 diacid-γGlu}-WCGTATCATERLAEFLHRSSF[Sar][NMeI]LSSTEVGSET[Hyp]-NH2; disulfide 2-7)"
0.078,0.11,SS (SS indicates solubility ≥ 1mg/ml),SS (SS indicates solubility ≥ 1mg/ml),SS (SS indicates solubility ≥ 1mg/ml),SS (SS indicates solubility ≥ 1mg/ml),SS (SS indicates solubility ≥ 1mg/ml),SS (SS indicates solubility ≥ 1mg/ml),SS (SS indicates solubility ≥ 1mg/ml),–,–,"CC[C@H](C)[C@@H](C(=O)N[C@@H](CC(C)C)C(=O)N[C@@H](CO)C(=O)N[C@@H](CO)C(=O)N[C@H](C(=O)N[C@@H](CCC(=O)O)C(=O)N[C@H](C(=O)NCC(=O)N[C@@H](CO)C(=O)N[C@@H](CCC(=O)O)C(=O)N[C@H](C(=O)N1C[C@H](O)C[C@H]1C(N)=O)[C@@H](C)O)C(C)C)[C@@H](C)O)N(C)C(=O)CN(C)C(=O)[C@H](Cc1ccccc1)NC(=O)[C@H](CO)NC(=O)[C@H](CO)NC(=O)[C@H](CCCNC(=N)N)NC(=O)[C@H](Cc1c[nH]cn1)NC(=O)[C@H](CC(C)C)NC(=O)[C@H](Cc1ccccc1)NC(=O)[C@H](CCC(=O)O)NC(=O)[C@H](C)NC(=O)[C@H](CC(C)C)NC(=O)[C@H](CCCNC(=N)N)NC(=O)[C@H](CCC(=O)O)NC(=O)[C@@H](NC(=O)[C@H](C)NC(=O)[C@@H]1CSSC[C@H](NC(=O)[C@H](CCCNC(=N)N)NC(=O)CC[C@H](NC(=O)CCCCCCCCCCCCCCCCCCC(=O)O)C(=O)O)C(=O)NCC(=O)N[C@@H]([C@@H](C)O)C(=O)N[C@@H](C)C(=O)N[C@@H]([C@@H](C)O)C(=O)N1)[C@@H](C)O [Compound 167, [19CD]-isoGlu-RC()GTATC()ATERLAEFLHRSSF-Gly(Me)-Ile(Me)-LSSTEVGSET-Hyp-NH2] ({C20 diacid-γGlu}-RCGTATCATERLAEFLHRSSF[Sar][NMeI]LSSTEVGSET[Hyp]-NH2; disulfide 2-7)"
0.57,0.7,SS (SS indicates solubility ≥ 1mg/ml),II (II indicates solubility ≤ 1 mg/ml),SS (SS indicates solubility ≥ 1mg/ml),SS (SS indicates solubility ≥ 1mg/ml),SS (SS indicates solubility ≥ 1mg/ml),SS (SS indicates solubility ≥ 1mg/ml),SS (SS indicates solubility ≥ 1mg/ml),–,–,"CC[C@H](C)[C@@H](C(=O)N[C@@H](CC(C)C)C(=O)N[C@@H](CO)C(=O)N[C@@H](CO)C(=O)N[C@H](C(=O)N[C@@H](CCC(=O)O)C(=O)N[C@H](C(=O)NCC(=O)N[C@@H](CO)C(=O)N[C@@H](CCC(=O)O)C(=O)N[C@H](C(=O)N1C[C@H](O)C[C@H]1C(N)=O)[C@@H](C)O)C(C)C)[C@@H](C)O)N(C)C(=O)[C@H](C)NC(=O)CN(C)C(=O)[C@H](Cc1ccccc1)NC(=O)[C@H](CO)NC(=O)[C@H](CO)NC(=O)[C@H](CO)NC(=O)[C@H](CO)NC(=O)[C@H](CCCNC(=N)N)NC(=O)[C@H](Cc1c[nH]cn1)NC(=O)[C@H](CC(C)C)NC(=O)[C@H](Cc1ccccc1)NC(=O)[C@H](CCC(=O)O)NC(=O)[C@H](C)NC(=O)[C@H](CC(C)C)NC(=O)[C@H](CCCNC(=N)N)NC(=O)[C@H](CCC(=O)O)NC(=O)[C@@H](NC(=O)[C@H](C)NC(=O)[C@@H]1CSSC[C@H](NC(=O)[C@H](CCCCN)NC(=O)[C@H](CCCCN)NC(=O)CC[C@H](NC(=O)CCCCCCCCCCCCCCCCCCC(=O)O)C(=O)O)C(=O)N[C@@H](CCC(=O)O)C(=O)N[C@@H]([C@@H](C)O)C(=O)N[C@@H](C)C(=O)N[C@@H]([C@@H](C)O)C(=O)N1)[C@@H](C)O [Compound 168, [19CD]-isoGlu-KKC()ETATC()ATERLAEFLHRSSSSF-Gly(Me)-A-Ile(Me)-LSSTEVGSET-Hyp-NH2] ({C20 diacid-γGlu}-KKCETATCATERLAEFLHRSSSSF[Sar]A[NMeI]LSSTEVGSET[Hyp]-NH2; disulfide 3-8)"
–,–,–,–,–,–,–,–,–,48,2,CC[C@H](C)[C@H](NC(=O)[C@@H]1CCCN1C(=O)CNC(=O)[C@H](Cc1ccccc1)NC(=O)[C@H](CC(N)=O)NC(=O)[C@H](CC(N)=O)NC(=O)[C@H](CO)NC(=O)[C@H](CO)NC(=O)[C@H](Cc1c[nH]cn1)NC(=O)[C@@H](NC(=O)[C@H](CC(C)C)NC(=O)[C@H](Cc1ccccc1)NC(=O)[C@H](CC(N)=O)NC(=O)[C@H](C)NC(=O)[C@H](CC(C)C)NC(=O)[C@H](CCCNC(=N)N)NC(=O)[C@H](CCC(N)=O)NC(=O)[C@@H](NC(=O)[C@H](C)NC(=O)[C@@H]1CSSC[C@H](NC(=O)[C@@H](N)CCCCN)C(=O)N[C@@H](CC(N)=O)C(=O)N[C@@H]([C@@H](C)O)C(=O)N[C@@H](C)C(=O)N[C@@H]([C@@H](C)O)C(=O)N1)[C@@H](C)O)C(C)C)C(=O)N[C@@H](CC(C)C)C(=O)N1CCC[C@H]1C(=O)N1CCC[C@H]1C(=O)N[C@H](C(=O)N[C@@H](CC(N)=O)C(=O)N[C@H](C(=O)NCC(=O)N[C@@H](CO)C(=O)N[C@@H](CC(N)=O)C(=O)N[C@H](C(=O)N[C@@H](Cc1ccc(O)cc1)C(N)=O)[C@@H](C)O)C(C)C)[C@@H](C)O [pramlin tide]
